pEC50: −log10 of the molar value. In brackets after ≈: the same amount, converted by molar mass. Where two headings read alike, the source gives them in different places. Positions of bridges follow the written chain, without caps; N, C: chain ends. Non-standard residues stand in square brackets, D forms with d. Residues, ends and D or L forms follow the SMILES beside them. Lys(N3) = [N-]=[N+]=NCCCC[C@H](N)C(=O)O; R8 = C=CCCCCCC[C@@](C)(N)C(=O)O; Cba = N[C@@H](CC1CCC1)C(=O)O; S5 = C=CCCC[C@](C)(N)C(=O)O; βAla = NCCC(=O)O
Key:
[1] = in vitro
Procedure, shortened: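 Azido-peptide permeability was read as loss of NanoBRET signal (donor 450 nm, acceptor 610 nm) after adding NanoBret618-azide at 10 μM final.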

[2] = Lactate dehydrogenase (LDH) release assay; type: cell-based
Procedure, shortened: (§1)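 Read-out was lactate dehydrogenase release, reflecting loss of membrane integrity, in reporter-engineered HCT116 cells (p53-responsive β-lactamase) seeded at 8000 cells per well. Final DMSO was 0.5%, and reported values are geometric means from three or more biological repeats.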

[3] = test system: HCT116 cells; assay: Lactate dehydrogenase (LDH) release assay; type: cell-based
Procedure, shortened: as §1

[4] = Experimental LogD (partition coefficient); conditions: for logD: Partition Coeff LogD
[5] = physchem
[6] = Solubility assay (kinetic solubility, PBS pH 7); type: physicochemical; conditions: pH 7, PBS; for solubility kinetic: pH 7, aqueous buffer, kinetic from dmso stock, read-out: Solubility
Procedure, shortened: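 Next, measure peak areas of sample and standard. Finally, multiply their ratio by the standard concentration to obtain solubility (µM).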

[7] = Nanoclick permeability assay EC50
[8] = 0% FBS 4Hr, read-out: LDH: Cytotoxicity assay: EC50
[9] = 10% FBS 4Hr, read-out: LDH: Cytotoxicity assay: EC50

Row | Structure (SMILES) | cell entry EC50 [1, 7] [µM] | pEC50 ([2]; LDH: Cytotoxicity assay: EC50) | LDH: Cytotoxicity assay: % Effect [3] [%] | Partition Coeff LogD [4] | EPSA [5] [A^2] | Solubility [6] | cell entry EC50 [1] [µM] | pEC50 [2, 8] | pEC50 [2, 9] | LDH: Cytotoxicity assay: % Effect ([3]; 0% FBS 4Hr) [%] | LDH: Cytotoxicity assay: % Effect ([3]; 10% FBS 4Hr) [%] | logD ([4]; experimental) | logD ([4]; not stated) | solubility kinetic [6] [µM] | LDH: Cytotoxicity assay: % Effect ([3]; 0% FBS 16Hr) [%]
1 | CC(=O)N[C@@H](CCCCN=[N+]=[N-])C(=O)NCCC(=O)N[C@@H](CC(C)C)C(=O)N[C@H](C(=O)N[C@@H](Cc1ccccc1)C(=O)N[C@]1(C)CCCCCCC=CCCC[C@@](C)(C(=O)N2CCC[C@H]2C(=O)N[C@@H](C)C(=O)N[C@@H](C)C(N)=O)NC(=O)[C@H](CC2CCC2)NC(=O)[C@H](CCC(N)=O)NC(=O)[C@H](C)NC(=O)[C@H](Cc2c[nH]c3ccccc23)NC(=O)[C@H](Cc2ccc(O)cc2)NC(=O)[C@H](CCC(=O)O)NC1=O)[C@@H](C)O [MP-184] (Ac-[Lys(N3)][βAla]LTF[R8]EYWAQ[Cba][S5]PAA-NH2; staple 6-13) | 0.36 | < 4.30 | 10.48 | Poorly Behaved | 201 | Poorly Behaved |  |  |  |  |  |  |  |  | 
2 | CC(=O)N[C@@H](CCCCN=[N+]=[N-])C(=O)NCCC(=O)N[C@@H](CC(C)C)C(=O)N[C@H](C(=O)N[C@@H](Cc1ccccc1)C(=O)N[C@]1(C)CCCCCCC=CCCC[C@@](C)(C(=O)N[C@@H](CO)C(=O)N[C@@H](C)C(=O)N[C@@H](C)C(N)=O)NC(=O)[C@H](CC2CCC2)NC(=O)[C@H](CCC(N)=O)NC(=O)[C@H](CC(C)C)NC(=O)[C@H](Cc2c[nH]c3ccccc23)NC(=O)[C@H](Cc2ccc(O)cc2)NC(=O)[C@H](CC(C)C)NC1=O)[C@@H](C)O [MP-693, AZIDE-ATSP-7041 (E5L, A8L)] (Ac-[Lys(N3)][βAla]LTF[R8]LYWLQ[Cba][S5]SAA-NH2; staple 6-13) |  |  |  |  | 196 |  | 0.29 | < 4.30 | < 4.30 | -2.781 | 12.6 | 2.92 | 4.68 | < 1 | 
3 | CC(=O)N[C@@H](CCCCN=[N+]=[N-])C(=O)NCCC(=O)N[C@@H](CC(C)C)C(=O)N[C@H](C(=O)N[C@@H](Cc1ccccc1)C(=O)N[C@]1(C)CCCCCCC=CCCC[C@@](C)(C(=O)NCC(=O)N[C@@H](C)C(=O)N[C@@H](C)C(N)=O)NC(=O)[C@H](CC2CCC2)NC(=O)[C@H](CCC(N)=O)NC(=O)[C@H](C)NC(=O)[C@H](Cc2c[nH]c3ccccc23)NC(=O)[C@H](Cc2ccc(O)cc2)NC(=O)[C@H](CCC(=O)O)NC1=O)[C@@H](C)O [MP-798] (Ac-[Lys(N3)][βAla]LTF[R8]EYWAQ[Cba][S5]GAA-NH2; staple 6-13) |  |  |  |  | 212 |  | 0.0829 | < 4.30 | < 4.30 | 16.01 | 16.43 |  | 2.79 | 80 (≈ 155 µg/mL) | 1.68
4 | CC(=O)N[C@@H](CCCCN=[N+]=[N-])C(=O)NCCC(=O)N[C@@H](CO)C(=O)N[C@H](C(=O)N[C@@H](Cc1ccccc1)C(=O)N[C@]1(C)CCCCCCC=CCCC[C@@](C)(C(=O)N[C@@H](CO)C(=O)N[C@@H](CO)C(=O)N[C@@H](CO)C(N)=O)NC(=O)[C@H](CC2CCC2)NC(=O)[C@H](CCC(N)=O)NC(=O)[C@H](CO)NC(=O)[C@H](Cc2c[nH]c3ccccc23)NC(=O)[C@H](Cc2ccc(O)cc2)NC(=O)[C@H](CO)NC1=O)[C@@H](C)O [MP-667] (Ac-[Lys(N3)][βAla]STF[R8]SYWSQ[Cba][S5]SSS-NH2; staple 6-13) | 2.23 | < 4.30 | 2.286 |  | 208 |  |  |  |  |  |  |  | 2.5 | 2 (≈ 3.9 µg/mL) | 
5 | CC(=O)N[C@@H](CCCCN=[N+]=[N-])C(=O)NCCC(=O)N[C@@H](CC(C)C)C(=O)N[C@H](C(=O)N[C@@H](Cc1ccccc1)C(=O)N[C@]1(C)CCCCCCC=CCCC[C@@](C)(C(=O)N[C@@H](CO)C(=O)N[C@@H](C)C(=O)N[C@@H](C)C(N)=O)NC(=O)[C@H](CC2CCC2)NC(=O)[C@H](CCC(N)=O)NC(=O)[C@H](C)NC(=O)[C@H](Cc2c[nH]c3cc(F)ccc23)NC(=O)[C@H](Cc2ccc(O)cc2)NC(=O)[C@H](CCC(=O)O)NC1=O)[C@@H](C)O [MP-004] | 7.44 | 4.62 | 10.1 |  | 201 |  |  |  |  |  |  |  | 2.9 | 110 (≈ 219 µg/mL) | 
